Data published in patent publication US10081628B2, “Apoptosis-inducing agents for the treatment of cancer and immune and autoimmune diseases” (AbbVie Inc., priority 2013, dated 2018).
Like-named read-outs stand apart in the source and are kept apart here.

What was measured:
RS4;11 cells = test: RS4;11 cell viability assay (CellTiter Glo); type: cell-based; details: 10% human serum, 48 hours
Source text: The acute lymphoblastic leukemia (ALL) cell line RS4;11 was used as the primary human cell line to assess the cellular activity of Bcl-2 selective agents in vitro and their efficacy in vivo. Previous studies have shown by BH3 profiling, a mitochondrial assay that classifies blocks in the intrinsic apoptotic pathway, that RS4;11 cells were highly dependant on BCL-2 for survival and sensitive to the Bcl-2 family member inhibitor ABT-737 (Blood, 2008, Vol. 111, 2300-2309).
RS4;11 cells were cultured in RPMI-1640 supplemented with 2 mM L-glutamine, 10% FBS, 1 mM sodium pyruvate, 2 mM HEPES, 1% penicillin/streptomycin (Invitrogen), 4.5 g/L glucose and maintained at 37 C containing 5% CO2. To test for the cellular activity of compounds in vitro, cells were treated at 50,000 cells per well in 96-well microtiter plates in the presence of 10% human serum for 48 hours in a humidified chamber with 5% CO2. Cell cytotoxicity EC50 values were assessed using CellTiter Glo (Promega) according to the manufacturer's recommendations. The EC50 values were determined as a percentage of viable cells following treatment compared to the untreated control cells.

lymphocytes = test: Lymphocyte reduction in C57BL/6 mice; type: in vivo; details: Mus musculus, ip
Experimental: An experiment was performed to evaluate the effect of Bcl-2 selective/Bcl-xL sparing compounds on immune cells and platelets, as evaluated in C57Bl/6 mice. Mice were treated four days with compounds (doses of 30 mg/kg, administered by intraperitoneal injection every day) and cell numbers were measured with a Cell Dyn hematology analyzer 24 hours after the first and last doses. Exposure of the compound (area under the curve) was calculated by using time points of 1, 6, 10 and 24 hours after the last dose.

GST-Bcl-2 = GST-Bcl-2 (Homo sapiens, UniProt P10415); test: TR-FRET Bcl-2 binding assay (F-Bak peptide probe); details: GST-Bcl-2 1 nM, F-Bak peptide probe 100 nM, Tb-anti-GST 1 nM; Wang's equation; '<' = below limit of detection
Experimental: Determination of the utility of compounds of this invention as binders to and inhibitors of anti-apoptotic Bcl-2 proteins was performed using the Time Resolved-Fluorescence Resonance Energy Transfer (TR-FRET) Assay. Tb-anti-GST antibody was purchased from Invitrogen (Catalog No. PV4216).
Representative compounds were serially diluted in dimethyl sulfoxide (DMSO) starting at 50 μM (2× starting concentration; 10% DMSO) and 10 μL were transferred into a 384-well plate. The samples are then mixed on a shaker for 1 minute and incubated for an additional 3 hours at room temperature. For each assay, the probe/antibody and protein/probe/antibody were included on each assay plate as negative and positive controls, respectively. Fluorescence was measured on the Envision (Perkin Elmer) using a 340/35 nm excitation filter and 520/525 (F-Bak peptide) and 495/510 nm (Tb-labeled […] antibody) emission filters. Dissociation constants (Ki) are shown in TABLE 2 below and were determined using Wang's equation (Wang Z.-X., An Exact Mathematical Expression For Describing Competitive Binding Of Two Different Ligands To A Protein Molecule. FEBS Lett. 1995, 360:111-4).
The samples were then mixed on a shaker for 1 minute and incubated for an additional 3 hours at room temperature. For each assay, the probe/antibody and protein/probe/antibody were included on each assay plate as negative and positive controls, respectively. Fluorescence was measured on the Envision (Perkin Elmer) using a 340/35 nm excitation filter and 520/525 (F-Bak peptide) and 495/510 nm (Tb-labeled anti-Histidine antibody) emission filters.
Inhibition constants (Ki) for compounds were determined using Wang's equation (Wang Zx. An Exact Mathematical Expression For Describing Competitive Binding Of Two Different Ligands To A Protein Molecule. FEBS Lett. 1995, 360:111-4).
The inhibition constant (Ki) is the dissociation constant of an enzyme-inhibitor complex or a protein/small molecule complex, wherein the small molecule is inhibiting binding of one protein to another protein or peptide. So a large Ki value indicates a low binding affinity and a small Ki value indicates a high binding affinity. […] The compounds are therefore expected to have utility in treatment of diseases during which anti-apoptotic Bcl-2 protein is expressed. Biological Data

[1] = 30 mg/kg intraperitoneal every day for four days, 24 hours after the last dose, read-out: Lymphocyte reduction % inh. day 4
[2] = 30 mg/kg intraperitoneal every day, 24 hours after the first dose, read-out: Lymphocyte reduction % inh. day 1

GST-Bcl-2, sequence (P10415 whole entry): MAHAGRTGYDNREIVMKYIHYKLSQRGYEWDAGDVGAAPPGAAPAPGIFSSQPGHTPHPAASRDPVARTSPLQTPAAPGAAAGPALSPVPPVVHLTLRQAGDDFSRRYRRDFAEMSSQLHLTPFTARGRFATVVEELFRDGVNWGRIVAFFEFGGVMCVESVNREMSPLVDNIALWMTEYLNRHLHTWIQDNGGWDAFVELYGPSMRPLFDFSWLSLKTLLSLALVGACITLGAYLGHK

| Compound | EC50 (RS4;11 cells) | inhibition at 30 mg/kg (lymphocytes; [1]) | inhibition at 30 mg/kg (lymphocytes; [2]) | Ki (GST-Bcl-2) |
| --- | --- | --- | --- | --- |
| CC1(C)CCC(CN2CCN(c3ccc(C(=O)NS(=O)(=O)c4ccc(NC[C@H]5COCCO5)c([N+](=O)[O-])c4)c(Oc4cnc5[nH]ccc5c4)c3)CC2)=C(c2ccc(Cl)cc2)C1 [Example 9, 4-(4-{[2-(4-chlorophenyl)-4,4-dimethylcyclohex-1-en-1-yl]methyl}piperazin-1-yl)-N-[(4-{[(2S)-1,4-dioxan-2-ylmethyl]amino}-3-nitrophenyl)sulfonyl]-2-(1H-pyrrolo[2,3-b]pyridin-5-yloxy)benzamide] | 0.0022 µM | 58% | 69% | < 0.0001 µM |
| CC1(C)CCC(CN2CCN(c3ccc(C(=O)NS(=O)(=O)c4ccc(NCC5(C)CCOCC5)c([N+](=O)[O-])c4)c(Oc4cnc5[nH]ccc5c4)c3)CC2)=C(c2ccc(Cl)cc2)C1 [Example 21, 4-(4-{[2-(4-chlorophenyl)-4,4-dimethylcyclohex-1-en-1-yl]methyl}piperazin-1-yl)-N-[(4-{[(4-methyltetrahydro-2H-pyran-4-yl)methyl]amino}-3-nitrophenyl)sulfonyl]-2-(1H-pyrrolo[2,3-b]pyridin-5-yloxy)benzamide] | 0.019 µM | 61% | 61% | < 0.0001 µM |
| CC1(C)CCC(CN2CCN(c3ccc(C(=O)NS(=O)(=O)c4ccc(NNC5CCOCC5)c([N+](=O)[O-])c4)c(Oc4cnc5[nH]ccc5c4)c3)CC2)=C(c2ccc(Cl)cc2)C1 [Example 18, 4-(4-{[2-(4-chlorophenyl)-4,4-dimethylcyclohex-1-en-1-yl]methyl}piperazin-1-yl)-N-({3-nitro-4-[2-(tetrahydro-2H-pyran-4-yl)hydrazinyl]phenyl}sulfonyl)-2-(1H-pyrrolo[2,3-b]pyridin-5-yloxy)benzamide] | 0.047 µM | 25% | < 15% | < 0.0001 µM |
| CC1(C)CCC(CN2CCN(c3ccc(C(=O)NS(=O)(=O)c4ccc(NCC5COCCOC5)c([N+](=O)[O-])c4)c(Oc4cnc5[nH]ccc5c4)c3)CC2)=C(c2ccc(Cl)cc2)C1 [Example 51, 4-(4-{[2-(4-chlorophenyl)-4,4-dimethylcyclohex-1-en-1-yl]methyl}piperazin-1-yl)-N-({4-[(1,4-dioxepan-6-ylmethyl)amino]-3-nitrophenyl}sulfonyl)-2-(1H-pyrrolo[2,3-b]pyridin-5-yloxy)benzamide] | 0.039 µM | – | – | < 0.0001 µM |
| CC1(C)CCC(CN2CCN(c3ccc(C(=O)NS(=O)(=O)c4ccc(NC[C@H]5CC[C@]6(CCCO6)CC5)c([N+](=O)[O-])c4)c(Oc4cnc5[nH]ccc5c4)c3)CC2)=C(c2ccc(Cl)cc2)C1 [Example 4, 4-(4-{[2-(4-chlorophenyl)-4,4-dimethylcyclohex-1-en-1-yl]methyl}piperazin-1-yl)-N-[(3-nitro-4-{[(5S,8S)-1-oxaspiro[4.5]dec-8-ylmethyl]amino}phenyl)sulfonyl]-2-(1H-pyrrolo[2,3-b]pyridin-5-yloxy)benzamide] | 0.057 µM | – | – | < 0.0001 µM |
| CC1(C)CCC(CN2CCN(c3ccc(C(=O)NS(=O)(=O)c4ccc(NCC5(CO)COC5)c([N+](=O)[O-])c4)c(Oc4cnc5[nH]ccc5c4)c3)CC2)=C(c2ccc(Cl)cc2)C1 [Example 11, 4-(4-{[2-(4-chlorophenyl)-4,4-dimethylcyclohex-1-en-1-yl]methyl}piperazin-1-yl)-N-{[4-({[3-(hydroxymethyl)oxetan-3-yl]methyl}amino)-3-nitrophenyl]sulfonyl}-2-(1H-pyrrolo[2,3-b]pyridin-5-yloxy)benzamide] | 0.015 µM | – | – | < 0.0001 µM |
| CC1(C)CCC(CN2CCN(c3ccc(C(=O)NS(=O)(=O)c4ccc(NC[C@H]5C[C@H](C#N)C5)c([N+](=O)[O-])c4)c(Oc4cnc5[nH]ccc5c4)c3)CC2)=C(c2ccc(Cl)cc2)C1 [Example 41, 4-(4-{[2-(4-chlorophenyl)-4,4-dimethylcyclohex-1-en-1-yl]methyl}piperazin-1-yl)-N-[(4-{[(trans-3-cyanocyclobutyl)methyl]amino}-3-nitrophenyl)sulfonyl]-2-(1H-pyrrolo[2,3-b]pyridin-5-yloxy)benzamide] | 0.047 µM | – | – | < 0.0001 µM |
| CC1(C)CCC(CN2CCN(c3ccc(C(=O)NS(=O)(=O)c4ccc(NCC5(C)COC5)c([N+](=O)[O-])c4)c(Oc4cnc5[nH]ccc5c4)c3)CC2)=C(c2ccc(Cl)cc2)C1 [Example 38, 4-(4-{[2-(4-chlorophenyl)-4,4-dimethylcyclohex-1-en-1-yl]methyl}piperazin-1-yl)-N-[(4-{[(3-methyloxetan-3-yl)methyl]amino}-3-nitrophenyl)sulfonyl]-2-(1H-pyrrolo[2,3-b]pyridin-5-yloxy)benzamide] | 0.03 µM | – | – | < 0.0001 µM |
| CC1(C)CCC(CN2CCN(c3ccc(C(=O)NS(=O)(=O)c4ccc(NCC5CCOCC5)c([N+](=O)[O-])c4)c(Oc4cnc5[nH]ccc5c4)c3)CC2)=C(c2ccc(Cl)c(Cl)c2)C1 [Example 53, 4-(4-{[2-(3,4-dichlorophenyl)-4,4-dimethylcyclohex-1-en-1-yl]methyl}piperazin-1-yl)-N-({3-nitro-4-[(tetrahydro-2H-pyran-4-ylmethyl)amino]phenyl}sulfonyl)-2-(1H-pyrrolo[2,3-b]pyridin-5-yloxy)benzamide] | 0.046 µM | – | – | 0.0002 µM |
| CC1(C)CCC(CN2CCN(c3ccc(C(=O)NS(=O)(=O)c4ccc(NC[C@H]5CCOC(C)(C)C5)c([N+](=O)[O-])c4)c(Oc4cnc5[nH]ccc5c4)c3)CC2)=C(c2ccc(Cl)cc2)C1 [Example 33, 4-(4-{[2-(4-chlorophenyl)-4,4-dimethylcyclohex-1-en-1-yl]methyl}piperazin-1-yl)-N-{[4-({[(4S)-2,2-dimethyltetrahydro-2H-pyran-4-yl]methyl}amino)-3-nitrophenyl]sulfonyl}-2-(1H-pyrrolo[2,3-b]pyridin-5-yloxy)benzamide] | 0.044 µM | – | – | < 0.0001 µM |
| CC1(C)CCC(CN2CCN(c3ccc(C(=O)NS(=O)(=O)c4ccc(NCC5CC(F)(F)C5)c([N+](=O)[O-])c4)c(Oc4cnc5[nH]ccc5c4)c3)CC2)=C(c2ccc(Cl)cc2)C1 [Example 28, 4-(4-{[2-(4-chlorophenyl)-4,4-dimethylcyclohex-1-en-1-yl]methyl}piperazin-1-yl)-N-[(4-{[(3,3-difluorocyclobutyl)methyl]amino}-3-nitrophenyl)sulfonyl]-2-(1H-pyrrolo[2,3-b]pyridin-5-yloxy)benzamide] | 0.12 µM | – | – | < 0.0001 µM |
| COC1(CNc2ccc(S(=O)(=O)NC(=O)c3ccc(N4CCN(CC5=C(c6ccc(Cl)cc6)CC(C)(C)CC5)CC4)cc3Oc3cnc4[nH]ccc4c3)cc2[N+](=O)[O-])COCCOC1 [Example 40, 4-(4-{[2-(4-chlorophenyl)-4,4-dimethylcyclohex-1-en-1-yl]methyl}piperazin-1-yl)-N-[(4-{[(6-methoxy-1,4-dioxepan-6-yl)methyl]amino}-3-nitrophenyl)sulfonyl]-2-(1H-pyrrolo[2,3-b]pyridin-5-yloxy)benzamide] | 0.076 µM | – | – | < 0.0001 µM |
